Tests used:
[1] = test system: HeLa; assay: Cytotoxicity against human HeLa cells after 48 hrs by MTT assay; assay type: functional, cell-based
[2] = test system: MCF7; assay: Cytotoxicity against human MCF7 cells after 48 hrs by MTT assay; assay type: functional, cell-based; conditions: MCF7, 48 h
[3] = test system: NIH3T3; assay: Cytotoxicity against mouse NIH/3T3 cells after 48 hrs by MTT assay; assay type: cell-based; conditions: NIH3T3, 48 h
[4] = test system: B16; assay: Cytotoxicity against mouse B16 cells after 48 hrs by MTT assay; assay type: functional, cell-based; conditions: B16, 48 h
[5] = test system: A549; assay: Cytotoxicity against human A549 cells after 48 hrs by MTT assay; assay type: functional, cell-based; conditions: A549, 48 h

Row | Compound | IC50 [1] [nM] | IC50 [2] [nM] | IC50 [3] [nM] | IC50 [4] [nM] | IC50 [5] [nM]
1 | COc1cc(/C=C/C(=O)NCc2cc3c([nH]c4ccccc43)c(-c3cccc(F)c3)n2)ccc1O | 23.9 | 17.9 | 36.9 | 19.4 | 22.4
2 | COc1ccc(-c2nc(CNC(=O)/C=C/c3ccc(F)cc3)cc3c2[nH]c2ccccc23)cc1 | 22.8 | 18.2 | 36.9 | 21.9 | 20.2
3 | O=C(/C=C/c1ccc(F)cc1)NCc1cc2c([nH]c3ccccc32)c(-c2cccc(F)c2)n1 | 24.3 | 16.5 | 30.8 | 16.8 | 16.3
4 | COc1cc(/C=C/C(=O)NCc2cc3c([nH]c4ccccc43)c(-c3cc(OC)c(OC)c(OC)c3)n2)ccc1O | 26 | 17.6 | 43.1 | 19 | 18.3
5 | COc1cccc2c1C(=O)c1c(O)c3c(c(O)c1C2=O)C[C@@](O)(C(=O)CO)C[C@@H]3O[C@H]1C[C@H](N)[C@H](O)[C@H](C)O1 [DOXORUBICIN] | 780 | 580 | 1720 | 670 | –
6 | COc1ccc(-c2nc(CNC(=O)/C=C/c3cc(OC)c(OC)c(OC)c3)cc3c2[nH]c2ccccc23)cc1 | 22.9 | 13.9 | 39.3 | 17.4 | 19.7
7 | COc1cc(-c2nc(CNC(=O)/C=C/c3ccc(Cl)cc3)cc3c2[nH]c2ccccc23)cc(OC)c1OC | 26.8 | 17.5 | 35.6 | 18.7 | 18.9
8 | COc1ccc(OC)c(/C=C/C(=O)NCc2cc3c([nH]c4ccccc43)c(-c3cc(OC)c(OC)c(OC)c3)n2)c1 | 25.1 | 17.2 | 39 | 19.2 | 18.8
9 | COc1cc(-c2nc(CNC(=O)/C=C/c3ccc(F)cc3)cc3c2[nH]c2ccccc23)cc(OC)c1OC | 20 | 16.4 | 43 | 17.2 | 18.7
10 | O=C(/C=C/c1cccc(O)c1)NCc1cc2c([nH]c3ccccc32)c(-c2cccc(F)c2)n1 | 27 | 19.2 | 35.7 | 24.9 | 23.4
11 | COc1ccc(-c2nc(CNC(=O)/C=C/c3ccc(O)c(OC)c3)cc3c2[nH]c2ccccc23)cc1 | 24.9 | 17.2 | 39.9 | 19.8 | 21.2
12 | O=C(/C=C/c1cc(F)cc(F)c1)NCc1cc2c([nH]c3ccccc32)c(-c2cccc(F)c2)n1 | 23.6 | 16.5 | 36 | 18.2 | 21
13 | COc1ccc(-c2nc(CNC(=O)/C=C/c3cc(OC)ccc3OC)cc3c2[nH]c2ccccc23)cc1 | 25.4 | 16.5 | 34.4 | 22.1 | 18.9
14 | COc1cc(-c2nc(CNC(=O)/C=C/c3cc(F)cc(F)c3)cc3c2[nH]c2ccccc23)cc(OC)c1OC | 23.8 | 19.6 | 36.3 | 24.1 | 21.6

— ChEMBL document CHEMBL4152353, “Synthesis of DNA interactive C3-trans-cinnamide linked β-carboline conjugates as potential cytotoxic and DNA topoisomerase I inhibitors” (Bioorg Med Chem, 2018)
